From patent publication US20220105150A1, “AMPHIPATHIC ALPHA-HELICAL ANTIMICROBIAL PEPTIDES TREAT INFECTIONS BY GRAM-NEGATIVE PATHOGENS” (priority 2019, published 2022)
Values after ≈ are worked out from the molar mass of the structure shown. Values joined by “and” are separate entries in the source; they are usually repeats but may differ in a detail not shown here. Equal values may be shown once.

Legend:
[1] = system: Acinetobacter baumannii strains resistant to Polymyxin B and Colistin; details: for MICGM: geometric mean of MIC values from seven strains resistant to Polymyxin B and Colistin; for MIC MB9941: strain MB9941; for MIC MB9941 / MIC MB9949 / MIC MB9951 / MIC MB9952 / MIC MB9953 / MIC MB9955 / MIC MB9963: Mueller-Hinton medium, 37° C., 24 h; for MIC MB9949: strain MB9949; for MIC MB9951: strain MB9951; for MIC MB9952: strain MB9952; for MIC MB9953: strain MB9953; for MIC MB9955: strain MB9955; for MIC MB9963: strain MB9963
[2] = system: human red blood cells; assay: Hemolytic activity on human red blood cells; details: for HC50: 50% hemolysis of human red blood cells after 18 h at 37° C.; for HC50 Fold Decrease: same peptide with and without specificity determinants
Method: For comparison, the inventors also determined the hemolytic activity after 18 hours at 37° C. Hemolysis can be determined with red blood cells (RBC) from various species including human red blood cells (hRBC).
The coupling procedure used 5 equivalents of Fmoc-D-amino acid or Fmoc-L-amino acid and HCTU (O-(1H-6-chlorobenzotriazole-1-yl)-1,1,3,3-tetramethyluronium hexafluorophosphate) and 6-Cl-HOBt (1-hydroxy-6-chloro-benztriazole) at 4.5 equivalents in DMF (Fisher Scientific, Denver, Colo.) and N-diisopropylethylamine (DIPEA) 10 equivalents (Oakwood Products, Inc., Estill, S.C.) in N-methyl-2-pyrrolidinone (NMP) (Fisher Scientific, Denver, Colo.) with the first and second couplings at room temperature for 30 min each. The deprotection procedure (removal of Fmoc protecting group) was carried out by treatment of the resin with 0.1 M HOBt (1-hydroxybenzotriazole) in DMF with 20% piperidine for 30 min. […] The resin was removed by filtration and peptide was precipitated with ice-cooled ethyl ether on ice for 15 min. Ether was decanted, the peptide was washed twice with ether and redissolved in acetonitrile/water (1:1, with 0.2% TFA) and the solution lyophilized to obtain the crude peptide. • Analytical and Preparative Purification by Reversed-Phase Chromatography: Analytical RP-HPLC: Column, Luna C18 (2), 250×4.6 mm I.D., 5 μm particle size, 100 Å pore size from Phenomenex (Torrance, Calif.). Run conditions: linear AB gradient (1% acetonitrile/min, starting from 2% acetonitrile) at a flow-rate of 1 ml/min, where eluent A is 0.2% aq. TFA and eluent B is 0.18% TFA in acetonitrile; temperature, 30° C. Preparative RP-HPLC: Peptides were dissolved in 0.2% aq. TFA containing 2% acetonitrile to a final concentration of 10 mg/ml. Following filtration through a 0.45 μm Millipore filter and subsequently through a 0.22 μm filter, the peptide solutions were loaded onto the column via multiple 20-ml injections into a 20-ml injection loop at a flow-rate of 10 ml/min. Column, Luna C18 (2), 250×30 mm I.D., 5 um particle size, 100 Å pore size from Phenomenex. Run conditions: 2% acetonitrile/min gradient up to an acetonitrile concentration 10% below that required to elute the peptide during analytical RP-HPLC, then shallow gradient elution (0.05% or 0.1% acetonitrile/min depending on the complexity of impurities near the product of interest on the analytical run of the crude peptide) at a flow-rate of 10 ml/min (same eluents as shown above for analytical RP-HPLC); at room temperature. • Temperature Profiling of Peptides on Reversed-phase HPLC to Measure Dimerization and Oligomerization: Purified peptides were analyzed on an Agilent 1200 series liquid chromatograph for temperature profiling using a Zorbax 300 SB-C8 column (150 mm×2.1 mm I.D.; 5 μm particle size, 300 Å pore size) from Agilent Technologies. […] Temperature profiling was carried out on peptide mixtures run at each temperature in 2° C. increments from 5° C. to 41° C. and 10° C. increments from 5° C. to 75° C. Twenty minutes was allowed between runs for temperature equilibration. • Characterization of Helical Structure: The mean residue molar ellipticities of peptides were determined by circular dichroism (CD) spectroscopy, using a Jasco J-815 spectropolarimeter (Jasco Inc. Easton, Md., USA) at 5° C. under KP buffer (50 mM NaH2PO4/Na2HPO4/100 mM KCl, pH 7.0) as well as in the presence of an α-helix inducing solvent, 2,2,2-trifluoroethanol, TFE, (50 mM NaH2PO4/Na2HPO4/100 mM KCl, pH 7.0 buffer/50% TFE). A 10-fold dilution of an approximately 500 μM stock solution of the peptide analogs was loaded into a 0.1 cm quartz cell and its ellipticity scanned from 195 to 250 nm.

## CC(=O)N[C@H](CCCCN)C(=O)N[C@H](CC(C)C)C(=O)N[C@H](CCN)C(=O)N[C@H](CO)C(=O)N[C@H](CC(C)C)C(=O)N[C@H](CC(C)C)C(=O)N[C@H](CCN)C(=O)N[C@@H](C(=O)N[C@H](CC(C)C)C(=O)N[C@H](CO)C(=O)N[C@H](CCN)C(=O)N[C@H](C)C(=O)N[C@H](C)C(=O)N[C@H](C)C(=O)N[C@H](C)C(=O)N[C@H](C)C(=O)N[C@H](CC(C)C)C(=O)N[C@H](CCN)C(=O)N[C@@H](C(=O)N[C@H](CC(C)C)C(=O)N[C@H](CC(C)C)C(=O)N[C@H](CCN)C(=O)N[C@H](C)C(=O)N[C@H](CC(C)C)C(=O)N[C@H](CO)C(=O)N[C@H](CCN)C(N)=O)[C@H](C)O)[C@H](C)O [D86(K13A/K16A)-(Lys^1-6Dab-1), Ac-KL(Dab)SLL(Dab)TLS(Dab)AAAAAL(Dab)TLL(Dab)ALS(Dab)-amide]
[1]
  MICGM: 0.9 µM
  MIC MB9941: 1.5 µM (≈ 3.87 µg/mL)
  MIC MB9949: 0.8 µM (≈ 2.07 µg/mL)
  MIC MB9951: 0.8 µM (≈ 2.07 µg/mL)
  MIC MB9952: 0.8 µM (≈ 2.07 µg/mL)
  MIC MB9953: 0.8 µM (≈ 2.07 µg/mL)
  MIC MB9955: 0.8 µM (≈ 2.07 µg/mL)
  MIC MB9963: 0.8 µM (≈ 2.07 µg/mL)
[2]
  HC50: 20.0 μg/mL and 7.7 μM
  HC50 Fold Decrease: >−96.4

## CC(=O)N[C@H](CCCCN)C(=O)N[C@H](CC(C)C)C(=O)N[C@H](CN)C(=O)N[C@H](CO)C(=O)N[C@H](CC(C)C)C(=O)N[C@H](CC(C)C)C(=O)N[C@H](CN)C(=O)N[C@@H](C(=O)N[C@H](CC(C)C)C(=O)N[C@H](CO)C(=O)N[C@H](CN)C(=O)N[C@H](C)C(=O)N[C@H](C)C(=O)N[C@H](C)C(=O)N[C@H](C)C(=O)N[C@H](C)C(=O)N[C@H](CC(C)C)C(=O)N[C@H](CN)C(=O)N[C@@H](C(=O)N[C@H](CC(C)C)C(=O)N[C@H](CC(C)C)C(=O)N[C@H](CN)C(=O)N[C@H](C)C(=O)N[C@H](CC(C)C)C(=O)N[C@H](CO)C(=O)N[C@H](CN)C(N)=O)[C@H](C)O)[C@H](C)O [D105(K13A/K16A)-(Lys^1-6Dap-1), Ac-KL(Dap)SLL(Dap)TLS(Dap)AAAAAL(Dap)TLL(Dap)ALS(Dap)-amide]
[1]
  MICGM: 1.3 µM
  MIC MB9941: 1.6 µM (≈ 4 µg/mL)
  MIC MB9949: 0.8 µM (≈ 2 µg/mL)
  MIC MB9951: 0.8 µM (≈ 2 µg/mL)
  MIC MB9952: 1.6 µM (≈ 4 µg/mL)
  MIC MB9953: 1.6 µM (≈ 4 µg/mL)
  MIC MB9955: 1.6 µM (≈ 4 µg/mL)
  MIC MB9963: 1.6 µM (≈ 4 µg/mL)
[2]
  HC50: 7.2 μg/mL and 2.9 μM
  HC50 Fold Decrease: >−395.9
